Source: publication PMC3781034, “A Small-Animal Pharmacokinetic/Pharmacodynamic PET Study of Central Serotonin 1A Receptor Occupancy by a Potential Therapeutic Agent for Overactive Bladder” (PLoS ONE, 2013)
Each block holds one compound with its values, some of them ahead of it.

Columns and labels:
rat 5-HT1A receptor = target: T1, rat 5-HT1A receptor (Rattus norvegicus, UniProt P19327); assay: Binding assay in rat hippocampal membrane fraction ([3H]MPPF); conditions: saturation binding, rat hippocampal membranes, Scatchard plot
T1 construct: from tissue; host or cells: rat hippocampus, membrane (microsomal) fraction
T1 sequence (P19327 1-422): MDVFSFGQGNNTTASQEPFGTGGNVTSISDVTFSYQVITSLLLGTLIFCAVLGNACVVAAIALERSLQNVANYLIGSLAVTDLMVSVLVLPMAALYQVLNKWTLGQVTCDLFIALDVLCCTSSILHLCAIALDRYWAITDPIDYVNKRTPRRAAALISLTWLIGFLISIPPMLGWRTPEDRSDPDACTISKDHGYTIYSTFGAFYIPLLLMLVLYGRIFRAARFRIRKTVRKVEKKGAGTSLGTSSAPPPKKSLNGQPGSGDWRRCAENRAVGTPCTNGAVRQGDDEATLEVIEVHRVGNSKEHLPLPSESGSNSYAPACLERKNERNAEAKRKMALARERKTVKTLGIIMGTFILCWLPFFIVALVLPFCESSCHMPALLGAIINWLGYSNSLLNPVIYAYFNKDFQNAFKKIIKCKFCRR
Experimental: Rat hippocampal samples were weighed, homogenized in 10-fold volume of 50 mM Tris-HCl (pH 7.4) on an ice bath, and centrifuged (50,000×g, 4°C, 20 min). The precipitate was further homogenized in a 10-fold volume of 50 mM Tris-HCl (pH 7.4) on an ice bath and centrifuged (50,000×g, 4°C, 20 min). The obtained precipitate was homogenized in 50 mM Tris-HCl (pH 7.4) to render a concentration of 100 mg tissue eq./mL. The obtained microsomal fraction was stored as a receptor stock solution at -80°C until use. […] MPPF in a total 1-ml reaction volume at 25°C for 60 min. The reaction was terminated, and bound radioactivity was separated from free radioligands by filtering and washing three times with 3 ml of 50 mM Tris-HCl (pH 7.4). The radioactivity content of the filters in 5 ml of liquid scintillator (Atomlight; PerkinElmer) was counted by TR2500 scintillation counter (PerkinElmer Life & Analytical Sciences). The specific binding was determined as the difference between total and nonspecific binding, measured in the absence and presence of 100 µM 5-HT. Data were analyzed by Scatchard plot to estimate equilibrium constant (Kd) values. For the competition experiments, binding assays were carried out using 0.3 nM [^3H] […] MPPF according to the following equation:
Ki=IC50/1+[radioligand]/Kd (1)
where [radioligand] means the concentration of the radioligand used.

5-HT1A [1] = conditions: hippocampal, unanesthetized rats; cited from earlier work
5-HT1A [2] = conditions: hippocampus, PET, isoflurane-anesthetized rats; cited from earlier work
micturition interval = assay: 5-HT1A receptor agonist (8-OH-DPAT)-induced model of OAB, cystometry; type: in vivo, female SD rats; conditions: intravenous infusion 0.06 mg/kg/h, female SD rats
Experimental: Catheter implantations and cystometric investigations were performed based on the reported method [14]. Briefly, on the day before the cystometric experiment, female SD rats were initially anesthetized with pentobarbital (50 mg/kg ip). Catheters were inserted into the femoral vein, the dome of the stomach and the dome of the bladder. In the cystometric study, the bladder catheter was connected to an infusion pump and a pressure transducer (DX-312; Nihon Kohden Co., Tokyo, Japan) by three-way stopcock. Saline was infused into the bladder and femoral vein. After bladder pressure was stabilized, 8-OH-DPAT (0.06 mg/kg/h) was infused into the femoral vein instead of saline. Bladder pressure was monitored with a pressure transducer and a pressure amplifier (AP-601G; Nihon Kohden), and recorded on a pen recorder (WT-645G; Nihon Kohden). The following three micturition intervals (i.e., intervals between consecutive peaks of bladder pressure induced at the time of bladder content evacuation) were obtained: (1) basal micturition interval (intervals before 8-OH-DPAT administration), (2) pre-administration micturition interval, (intervals immediately before administration of E2110 or vehicle), and (3) post-administration micturition interval (intervals observed between 1 and 2 hr after administration of E2110 or vehicle). […] E2110 (0.03, 0.1 or 0.3 mg/kg) or vehicle was administered to four groups of eight conscious rats orally.
Data are expressed as mean ± standard error of mean (S.E.M). In the pharmacological study, the statistical significance of differences between the vehicle- and E2110-treated groups was tested using one-way analysis of variance (ANOVA) followed by Dunnett’s multiple comparison test. A probability (p) value of <0.05 (two-sided) was considered statistically significant. All statistical analyses were performed using the SAS software package version 8.1 or 8.2 (SAS Institute Japan Ltd., Tokyo, Japan).

Kd (rat 5-HT1A receptor): 0.92 nM
SMILES: COc1ccccc1N1CCN(CCN(C(=O)c2ccc(F)cc2)c2ccccn2)CC1 [[^3H] MPPF, [^3H] 2'-methoxyphenyl-(N-2'-pyridinyl)-p-fluoro-benzamidoethyipiperazine, reference compound]

SMILES: CC(C)NCC(O)COc1cccc2[nH]ccc12 (stereo not shown) [pindolol]
ED50 for 5-HT1A RO, ex vivo autoradiography (5-HT1A [1]): 8.5 mg/kg | in vivo ED50 for 5-HT1A RO (5-HT1A [2]): 5.6 mg/kg

SMILES: CCCN(CCC)C1CCc2cccc(O)c2C1 (stereo not shown) [8-OH-DPAT, 8-hydroxy-2-(di-n-propylamino)-tetralin, reference compound]
micturition interval versus basal level (micturition interval): markedly decreased
